# Experimental data taken from patent publication US11357851B2, “Uses of myostatin antagonists, combinations containing them and uses thereof” (Novartis AG, priority 2015, dated 2022).
# Tests used:
# [1] = test system: CT-26 mouse colon cancer-induced cachexia; assay: Time-to-progression study in CT-26 mouse colon cancer cachexia; assay type: in vivo; conditions: for time-to-progression (days until body weight loss 20% or tumor volume 1,500 mm^3): cisplatin combination study, CDD866 once weekly; for time-to-progression (median days elapsed until an interruption criterion): everolimus combination study, after randomization and treatment start, CDD866 twice weekly
# Description: Time-to-progression study was performed as a follow-up to assess if the combination of CDD866 and cisplatin or everolimus slows progression of cancer cachexia to the interruption criteria which was defined by body weight loss reaching to 20% or tumor volume exceeding 1,500 mm^3. The treatment regimen was the same as used in the therapeutic intervention study. Body weight and tumor volume were measured 2 to 3 times per week in the first 2 weeks and then every day until the end of experiment. The mice were euthanized with CO2, when body weight loss was close to 20% or tumor volume exceeded 1,500 mm^3.
# (§1) Values are expressed as mean±SEM. Statistical analysis was carried out using Sidak's multiple comparison test following analysis of variance to compare the treatment groups to the control groups (non-tumor and tumor-bearing), anti-cancer agent alone (cisplatin or everolimus) or CDD866 alone in the therapeutic intervention study, and Dunn's multiple comparisons test for time-to-progression study. Differences were considered to be significant when the probability value was <0.05. Statistical analyses were performed by GraphPad Prism (GraphPad Software, Inc., La Jolla, Calif., USA). Body weight was expressed as % change from day 0 as the start of treatment. Tumor volumes in cubic mm were calculated according to the formula (length×width^2)/2. Muscle weight was normalized to the body weight on the day of cell inoculation (initial body weight) and then expressed as % change from the non-tumor control group.
# Extensive tumor growth and subsequent body weight loss are important predictors of mortality in cancer patients. We therefore wanted to evaluate whether the combination of CDD866 and cisplatin has an impact on the length of survival. For ethical reason we abstained from classical survival studies. Instead, each mouse was individually euthanized when experiencing either a body weight loss exceeding 20% of initial body weight, or reaching a tumor volume of 1,500 mm^3, determined as time-to-progression.
# non-tumor bearing mice = assay: Therapeutic intervention study, non-tumor bearing (healthy control) mice; assay type: in vivo, mouse; conditions: for body weight in healthy control animals: cisplatin study, non-tumor mice; for weight of tibialis anterior, gastrocnemius-soleus-plantaris complex and quadriceps muscles in non-tumor bearing group / body weight gain in non-tumor bearing group: everolimus study; for body weight gain in non-tumor bearing group: up to day 14, CDD866 20 mg/kg s.c. twice weekly, everolimus 5 mg/kg p.o. once daily
# Description: (§2) Adult male Balb/cJRj mice at the age of 11 to 12 weeks were purchased from Janvier Laboratories (Le Genest St Isle, France). Mice were acclimated to the facility for 7 days. Animals were housed in groups of 5 or less animals at 25° C. with a 12:12 h light-dark cycle. They were fed a standard laboratory diet containing 18.2% protein and 3.0% fat with an energy content of 15.8 MJ/kg (NAFAG 3890, Kliba, Basel, Switzerland). Food and water were provided ad libitum.
# (§3) Mouse colon cancer cell line CT-26 was cultured in RPMI 1640 medium supplemented with 10% heat inactivated fetal bovine serum and antibiotic-antimycotic solution at 37° C. with 5% CO2. CT-26 cells were harvested by treatment with Accutase® (PAA Laboratories GmbH, Pasching, Austria) and suspended in a solution containing 50% PBS and 50% BD Matrigel™ Matrix without phenol red (catalog number 356237, BD Biosciences, Bedford, Mass., USA). A 0.1 mL of cell suspension containing 3×10^5 cells was inoculated subcutaneously into the left flank of mice. When tumors were palpable, mice bearing tumors with acceptable morphology and size were randomized to produce groups balanced with respect to mean and range of tumor sizes and body weight. Treatments were initiated on the day of randomization. Therapeutic intervention study was conducted to evaluate the effect of CDD866, either alone or in combination with anti-cancer agents. CDD866 was administered at 20 mg/kg s.c., once or twice weekly in a volume of 5 mL/kg. Cisplatin was administered at 1 mg/kg i.p. twice a week. Everolimus was administered at 5 mg/kg p.o. once daily. In the combination groups, cisplatin or everolimus treatment was combined with once or twice weekly subcutaneous treatment of CDD866, respectively. Body weight and tumor volume were measured 2 to 3 times per week. At the end of the experiment, the mice were euthanized with CO2, and tumor, tibialis anterior, gastrocnemius-soleus-plantaris complex, quadriceps were collected and weighed.
# as §1
# [2] = test system: CT-26 mouse colon cancer-induced cachexia; assay: Therapeutic intervention study in CT-26 mouse colon cancer-induced cachexia (tumor-bearing mice); assay type: in vivo; conditions: for body weight loss (of initial body weight): tumor-bearing animals, ten days after starting treatment, CDD866 20 mg/kg s.c. once weekly, cisplatin 1 mg/kg i.p. twice a week; for CT-26-induced loss in body weight: day 14, CDD866 twice weekly; for CT-26-induced muscle weight loss: tibialis anterior, gastrocnemius-soleus-plantaris complex, quadriceps
# Description: as §2, §3, §1
# [3] = cisplatin study, CT-26 tumor-bearing mice
# [4] = cisplatin study, CT-26 tumor-bearing mice, normalized to initial body weight, versus non-tumor control
Compound,"time-to-progression (days until body weight loss 20% or tumor volume 1,500 mm^3) [1]",body weight in healthy control animals (non-tumor bearing mice),"tumor progression / CT-26 tumor volume and weight [2, 3]","gastrocnemius muscle weight loss [2, 4]","tibialis anterior muscle wasting (muscle loss) [2, 4]",body weight loss (of initial body weight) ([2]; cisplatin study),time-to-progression (median days elapsed until an interruption criterion) [1],"weight of tibialis anterior, gastrocnemius-soleus-plantaris complex and quadriceps muscles in non-tumor bearing group (non-tumor bearing mice)",body weight gain in non-tumor bearing group (non-tumor bearing mice),CT-26 tumor growth ([2]; everolimus study),CT-26 tumor weight ([2]; everolimus study),CT-26-induced loss in body weight ([2]; everolimus study),CT-26-induced muscle weight loss ([2]; everolimus study)
"N.N.[Cl][Pt][Cl] [cisplatin, cis-diamminedichloro-platinum(II)]",12 days,did not affect body weight,reduced CT-26 tumor weight to similar levels,25%,34%,20%,,,,,,,
"CO[C@H]1C[C@@H]2CC[C@@H](C)[C@@](O)(O2)C(=O)C(=O)N2CCCC[C@H]2C(=O)O[C@H]([C@H](C)C[C@@H]2CC[C@@H](OCCO)[C@H](OC)C2)CC(=O)[C@H](C)/C=C(\C)[C@@H](O)[C@@H](OC)C(=O)[C@H](C)C[C@H](C)/C=C/C=C/C=C/1C [everolimus, (1R,9S,12S,15R,16E,18R,19R,21R,23S,24E,26E,28E,30S,32S,35R)-1,18-d ihydroxy-12-{(1 R)-2-[(1S,3R,4R)-4-(2-hydroxyethoxy)-3-methoxycyclohexyl]-1-methylethyl}-19,30-dimethoxy-15,17,21,23,29,35-hexamethyl-11,36-dioxa-4-aza-tricyclo[30.3.1.04,9]hexatriaconta-16,24,26,28-tetraene-2,3,10,14,20-pentaone]",,,,,,,23 days,not affected,not affected significantly,slowed CT-26 tumor growth,significantly reduced,completely prevented,significantly reduced
"CDD866: murinized version of bimagrumab, where the human Fc region of the antibody has been replaced by a mouse Fc",16 days,marked body weight gain,neither accelerated tumor progression,13%,,3%,21 days,significantly increased,increased significantly,,no significant effect,completely prevented,significantly reduced
